Measured values from patent US20230293526A1, “METHOD FOR TREATING CANCER WITH A REVERSE TRANSCRIPTASE INHIBITOR” (PrimeFour Therapeutics, Inc., priority 2020, published 2023).

Legend:
[1] = system: cancer cell lines; assay: Cancer cell proliferation activity of representative nucleosides, CellTiterGlo 72 h (Example 7, Tables 8 and 9); assay type: cell-based; details: 72 h
How it was run: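 Percent viability was set against 0.1% DMSO (100%) and 10 μM staurosporine (0%), with signal from CellTiterGlo luminescence. Dose-response treatment began one day after seeding and lasted 72 h at 37° C under 5% or 10% CO2, with 0.1% final DMSO.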

[2] = system: human LINE-1; assay: Human LINE-1 (L1) retrotransposition dual-luciferase reporter assay in HeLa cells; assay type: cell-based; details: Homo sapiens, HeLa, 72 h, read-out: Human LINE-1 IC50 (Human L1 activity inhibition)
Experimental: Representative compounds were tested for inhibition of retrotransposition activity of human LINE-1 (L1) retrotransposition reporter assay in HeLa cells according to the following procedure.
Human Cervical Adenocarcinoma Cells (HeLa) were cultured in Dulbecco's Modified Eagle's Medium (DMEM) containing 4500 mg/L glucose, L-glutamine, sodium pyruvate and sodium bicarbonate, supplemented with 10% of heat inactivated fetal bovine serum (FBS). Cells were grown at 37° C. in an atmosphere of 5% CO2. The dual luciferase-encoding plasmid pYX017 was provided by Prof Wenfeng An (Xie, et al., 2011, Nucleic Acids Res).
The reporter assay was performed in 96-well white, optical bottom plates (Thermo Fisher, 165306). 24 hours prior to transfection, HeLa cells were seeded in a density of 2,500 cells per well, in 50 μL of DMEM, 10% FBS media volume. Cells were incubated at 37° C. in an atmosphere of 5% CO2. Seeding was optimized to achieve approximately 30% cell confluency on the day of transfection. A transfection mix was prepared by combining transfection reagent FuGENE® HD (Promega, E2311) and plasmid DNA (100 ng per well) in a 3:1 ratio, in OpiMEM media (Thermo Fisher, 31985062). Next, 5 μL of the transfection mix was combined with 20 μL of DMEM, 10% FBS media, and 25 μL of this mix was added into each well of an assay plate. In each assay plate one column remained untransfected to serve as a blank luminescence signal.
Serial dilution of test compounds was performed in DMSO and transferred to medium. Next, 25 μL of media-diluted compounds series were transferred to an assay plate containing cells and transfection media. The final concentration of DMSO in treated wells was 0.2%. Serial dilutions of compounds were added to an assay plate immediately after transfection. Compounds were tested in triplicates. The assay plate was then incubated with transfection reagent and compounds at 37° C. in an atmosphere of 5% CO2 for 72 hours.
Luciferase reporter activity was quantified with the Dual-Luciferase® Reporter Assay System (Promega) following the manufacturer's manual, with a passive lysis buffer volume increased to 30 μL and lysis incubation time increased to 20 min at room temperature with gentle shaking, to ensure complete cell lysis. Luminescence was measured using a SpectraMax i3×Multi-Mode Microplate Reader, with integration times of 100 ms and 10 ms applied to measure FLuc and RLuc signals, respectively. Relative LNE-1 activity was calculated as Firefly signal/Renilla signal*10,000. In order to determine IC50 values for each compound, dose response data were fit to a logistic using non-linear regression.

## C#C[C@]1(CO)O[C@@H](n2cc(F)c(=O)[nH]c2=O)C[C@@H]1O [compound 15]
[1]; 72 h, 5637, bladder
  IC50: 0.37 µM
[1]; CLS439, bladder
  IC50: > 50 µM
[1]; HS729, muscle
  IC50: > 50 µM
[1]; J82, bladder
  IC50: > 50 µM
[1]; JAR, placenta
  IC50: > 50 µM
[1]; MT3, breast
  IC50: > 50 µM
[1]; PC3, prostate
  IC50: > 50 µM
[1]; RD, muscle
  IC50: > 50 µM
[1]; T24, bladder
  IC50: > 50 µM
[1]; Homo sapiens, 22Rv1, 72 h, 22RV1, prostate
  IC50: 3.69 µM
[1]; Homo sapiens, 786-0, 72 h, 786O, kidney
  IC50: > 50 µM
[1]; Homo sapiens, A204, 72 h, A204, muscle
  IC50: > 50 µM
[1]; Homo sapiens, A549, 72 h, A549, lung
  IC50: > 50 µM
[1]; Homo sapiens, A673, 72 h, A673, bone
  IC50: > 50 µM
[1]; Homo sapiens, A2780, 72 h, A2780, ovary
  IC50: > 50 µM
[1]; Homo sapiens, A-375, 72 h, A375, skin
  IC50: > 50 µM
[1]; Homo sapiens, A-431, 72 h, A431, skin
  IC50: 1.42 µM
[1]; Homo sapiens, ACHN, kidney
  IC50: 0.94 µM
[1]; Homo sapiens, ASPC1, 72 h, ASPC1, pancreas
  IC50: 0.49 µM
[1]; Homo sapiens, BT-20, 72 h, BT20, breast
  IC50: > 50 µM
[1]; Homo sapiens, BXPC-3, 72 h, BXPC3, pancreas
  IC50: 0.59 µM
[1]; Homo sapiens, C-33-A, C33A, endometrial
  IC50: 3.07 µM
[1]; Homo sapiens, CAKI-1, 72 h, CAKI1, kidney
  IC50: > 50 µM
[1]; Homo sapiens, COLO 205, 72 h, COLO205, colon
  IC50: 0.87 µM
[1]; Homo sapiens, COLO-678, 72 h, COLO678, colon
  IC50: > 50 µM
[1]; Homo sapiens, Ca-Ski, CASKI, endometrial
  IC50: > 50 µM
[1]; Homo sapiens, Caco-2, 72 h, CACO2, colon
  IC50: > 50 µM
[1]; Homo sapiens, Calu-6, 72 h, CALU6, lung
  IC50: > 50 µM
[1]; Homo sapiens, DLD-1, 72 h, DLD1, colon
  IC50: > 50 µM
[1]; Homo sapiens, DU-145, 72 h, DU145, prostate
  IC50: > 50 µM
[1]; Homo sapiens, EFO-21, 72 h, EFO21, ovary
  IC50: > 50 µM
[1]; Homo sapiens, EJ-28, 72 h, EJ28, bladder
  IC50: > 50 µM
[1]; Homo sapiens, Granta-519, 72 h, GRANTA-519, hematological
  IC50: 0.35 µM
[1]; Homo sapiens, HCT-15, 72 h, HCT15, colon
  IC50: > 50 µM
[1]; Homo sapiens, HCT-116, 72 h, HCT116, colon
  IC50: > 50 µM
[1]; Homo sapiens, HEK293, 72 h, HEK293, kidney
  IC50: > 50 µM
[1]; Homo sapiens, HL-60, 72 h, HL-60, hematological
  IC50: > 50 µM
[1]; Homo sapiens, HT-29, 72 h, HT29, colon
  IC50: > 50 µM
[1]; Homo sapiens, HT-1080, 72 h, HT1080, connective tissue
  IC50: > 50 µM
[1]; Homo sapiens, HeLa, endometrial
  IC50: > 50 µM
[1]; Homo sapiens, HepG2, 72 h, HEPG2, liver
  IC50: > 50 µM
[1]; Homo sapiens, Hs-578T, HS578T, breast
  IC50: > 50 µM
[1]; Homo sapiens, IGROV-1, 72 h, IGROV1, ovary
  IC50: > 50 µM
[1]; Homo sapiens, IMR-90, 72 h, IMR90, lung
  IC50: > 50 µM
[1]; Homo sapiens, JEG-3, 72 h, JEG3, placenta
  IC50: > 50 µM
[1]; Homo sapiens, JIMT-1, 72 h, JIMT1, breast
  IC50: > 50 µM
[1]; Homo sapiens, K562, 72 h, K-562, hematological
  IC50: > 50 µM
[1]; Homo sapiens, Kasumi 1, 72 h, KASUMI-1, hematological
  IC50: > 50 µM
[1]; Homo sapiens, L-363, 72 h, L-363, hematological
  IC50: > 50 µM
[1]; Homo sapiens, LoVo, colon
  IC50: 2.06 µM
[1]; Homo sapiens, MCF7, 72 h, MCF7, breast
  IC50: > 50 µM
[1]; Homo sapiens, MDA-MB-231, 72 h, MDAMB231, breast
  IC50: > 50 µM
[1]; Homo sapiens, MDA-MB-435, 72 h, MDAMB435, skin
  IC50: > 50 µM
[1]; Homo sapiens, MDA-MB-436, 72 h, MDAMB436, breast
  IC50: > 50 µM
[1]; Homo sapiens, MDA-MB-468, 72 h, MDAMB468, breast
  IC50: > 50 µM
[1]; Homo sapiens, MG-63, 72 h, MG63, bone
  IC50: > 50 µM
[1]; Homo sapiens, MHH-ES-1, 72 h, MHHES1, bone
  IC50: > 50 µM
[1]; Homo sapiens, MIA PaCa-2, 72 h, MIAPACA2, pancreas
  IC50: > 50 µM
[1]; Homo sapiens, MINO, hematological
  IC50: 0.06 µM
[1]; Homo sapiens, MV4-11, 72 h, MV4-11, hematological
  IC50: 1.72 µM
[1]; Homo sapiens, NCI-H23, 72 h, NCI-H23, lung
  IC50: > 50 µM
[1]; Homo sapiens, NCI-H82, 72 h, NCIH82, lung
  IC50: > 50 µM
[1]; Homo sapiens, NCI-H292, 72 h, NCIH292, lung
  IC50: > 50 µM
[1]; Homo sapiens, NCI-H460, 72 h, NCIH460, ung
  IC50: > 50 µM
[1]; Homo sapiens, OVCAR-3, 72 h, OVCAR3, ovary
  IC50: > 50 µM
[1]; Homo sapiens, OVCAR-4, 72 h, OVCAR4, ovary
  IC50: > 50 µM
[1]; Homo sapiens, PANC-1, 72 h, PANC1, pancreas
  IC50: > 50 µM
[1]; Homo sapiens, PLC-PRF-5, 72 h, PLCPRF5, liver
  IC50: > 50 µM
[1]; Homo sapiens, Panc1005, 72 h, PANC1005, pancreas
  IC50: > 50 µM
[1]; Homo sapiens, Ramos, hematological
  IC50: 1.18 µM
[1]; Homo sapiens, SAOS-2, 72 h, SAOS2, bone
  IC50: > 50 µM
[1]; Homo sapiens, SF-268, 72 h, SF268, brain
  IC50: > 50 µM
[1]; Homo sapiens, SF-295, 72 h, SF295, brain
  IC50: > 50 µM
[1]; Homo sapiens, SK-BR-3, 72 h, SKBR3, breast
  IC50: 0.37 µM
[1]; Homo sapiens, SK-HEP1, 72 h, SKHEP1, liver
  IC50: > 50 µM
[1]; Homo sapiens, SK-LMS-1, 72 h, SKLMS1, uterus
  IC50: > 50 µM
[1]; Homo sapiens, SK-MEL-5, 72 h, SKMEL5, skin
  IC50: > 50 µM
[1]; Homo sapiens, SK-MEL-28, 72 h, SKMEL28, skin
  IC50: > 50 µM
[1]; Homo sapiens, SK-N-AS, SKNAS, brain
  IC50: > 50 µM
[1]; Homo sapiens, SK-N-SH, SKNSH, brain
  IC50: > 50 µM
[1]; Homo sapiens, SK-OV-3, 72 h, SKOV3, ovary
  IC50: > 50 µM
[1]; Homo sapiens, SNB-75, 72 h, SNB75, brain
  IC50: > 50 µM
[1]; Homo sapiens, SU-DHL10, 72 h, SU-DHL-10, hematological
  IC50: 3.86 µM
[1]; Homo sapiens, SU-DHL-6, 72 h, SU-DHL-6, hematological
  IC50: 1.3 µM
[1]; Homo sapiens, SW-620, 72 h, SW620, colon
  IC50: > 50 µM
[1]; Homo sapiens, TE-671, 72 h, TE671, muscle
  IC50: > 50 µM
[1]; Homo sapiens, THP-1, 72 h, THP-1, hematological
  IC50: > 50 µM
[1]; Homo sapiens, U2OS, bone
  IC50: > 50 µM
[1]; Homo sapiens, U-87 MG, U87MG, brain
  IC50: > 50 µM
[1]; Homo sapiens, UMUC3, 72 h, UMUC3, bladder
  IC50: > 50 µM
[1]; Homo sapiens, UO-31, 72 h, UO31, kidney
  IC50: > 50 µM
[1]; Homo sapiens, WSU-NHL, hematological
  IC50: 0.87 µM
[1]; NCI-H358M, NCIH358M, lung
  IC50: 0.67 µM
[1]; PBMC, hematological
  IC50: > 50 µM
[1]; RD-ES, RDES, bone
  IC50: > 50 µM
[2]
  IC50: 0.833 µM
